Drawing on patent US9505749B2, “Quinazolinone compounds and derivatives thereof” (AMGEN INC., priority 2012, dated 2016), this text covers IC50 and EC50 for three compounds.

In experiment [1] the target is 6×HIS-tankyrase1 (1091-1325) (Homo sapiens (Human), UniProt O95271). The experiment is described as follows: Tankyrase 1 biochemical assay (AlphaLisa, PARsylation). As to conditions: 400 nM NAD, 60 minutes at RT; read-out: TNKS1 IC50. Background: Alpha assays give light when donor and acceptor beads are brought close together.
The target in experiment [2] is 6×HIS-tankyrase 2 (946-1162) (Homo sapiens (Human), UniProt Q9H2K2). Description: Tankyrase 2 biochemical assay (AlphaLisa, PARsylation). As to conditions: 250 nM NAD; read-out: TNKS2 IC50.
Experiment [3] has as its system Axin2 accumulation in SW480 cells. The experiment is described as follows: Axin2 384 immunofluorescence assay. It counts as cell-based. As to conditions: Homo sapiens; SW480 cells, 24 hours; read-out: Axin2 384 IF EC50.
Experiment [4] deals with 8×TCF promoter-driven Firefly luciferase (Wnt reporter) in DLD-1 colorectal cells. Description: DLD-1-STF assay, constitutively activated Wnt pathway reporter. As to conditions: Homo sapiens. It counts as cell-based. Here is the method:
DLD-1 colorectal cells engineered with an 8×TCF promoter-driven Firefly (FF) luciferase gene (Wnt reporter) along with an EF1a promoter-driven Renilla (RN) luciferase gene (control reporter) were used to measure the potency of tankyrase compounds in the context of the constitutively activated Wnt pathway due to mutated APC in colorectal cancer cells. The engineered DLD-1 cells were plated (45 μL) at a density of 10,000 cells/well in black, clear-bottom, 96-well View plates (PerkinElmer) in normal growth medium (RPMI with 10% FBS with no antibiotics). Tankyrase inhibitors (5 μL) were transferred to cells from a three-fold serially diluted compound plate. A 10-point dilution series was tested starting at a concentration (10 μM final concentration in assay). Column 6 contained only DMSO and served as the “HI” control. A potent Tankyrase inhibitor was used at a final concentration of 10 uM in column 12 which served as the “LO” control. […] The Dual-Glo Reagents (Promega) were added as directed by manufacturer to assay the FF and RN luciferase activity. Luciferase activity was measures using the EnVision multilabel plate reader (PerkinElmer).

The target of another experiment is PARP1 (Homo sapiens (Human), UniProt P09874). Description: PARP1 biochemical assay (Trevigen kit). From the text:
PARP1 biochemical assay was purchased as a kit from Trevigen (cat.#4676-096-K) and used per manufacturers recommendations.

A further experiment concerns the target PARP2 (Homo sapiens (Human), UniProt Q9UGN5). The experiment is described as follows: PARP2 biochemical assay (BPS kit).
In experiment [5] the test system is total β-catenin in SW480 colorectal cells. The experiment is described as follows: Total β-catenin MSD 96-well plate assay for SW480 cells. As to conditions: Homo sapiens, SW480, read-out: SW480-Total beta-catenin (TBC) IC50 IP.
Where [6] appears, read: DLD-1, read-out: DLD1-STF-FF/RL*100 IC50.

Read-outs that look alike come from different tables or passages of the source.

Sequence of PARP2 (Q9UGN5 whole entry): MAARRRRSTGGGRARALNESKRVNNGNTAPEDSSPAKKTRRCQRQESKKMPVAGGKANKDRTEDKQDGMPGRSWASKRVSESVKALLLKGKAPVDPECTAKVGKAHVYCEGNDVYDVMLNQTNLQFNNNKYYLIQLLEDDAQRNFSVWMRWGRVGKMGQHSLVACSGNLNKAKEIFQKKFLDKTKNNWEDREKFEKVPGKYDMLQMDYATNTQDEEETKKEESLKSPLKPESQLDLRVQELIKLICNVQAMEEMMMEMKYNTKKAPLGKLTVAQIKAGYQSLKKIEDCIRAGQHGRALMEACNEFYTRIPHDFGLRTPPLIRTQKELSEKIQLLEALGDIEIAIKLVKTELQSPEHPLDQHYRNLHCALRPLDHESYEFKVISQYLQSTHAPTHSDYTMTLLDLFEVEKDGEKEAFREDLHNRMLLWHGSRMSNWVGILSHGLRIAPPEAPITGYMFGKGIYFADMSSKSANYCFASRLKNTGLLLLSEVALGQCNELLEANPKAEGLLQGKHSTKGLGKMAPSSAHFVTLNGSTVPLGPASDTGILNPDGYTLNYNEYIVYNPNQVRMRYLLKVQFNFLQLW
Sequence of PARP1 (P09874 whole entry): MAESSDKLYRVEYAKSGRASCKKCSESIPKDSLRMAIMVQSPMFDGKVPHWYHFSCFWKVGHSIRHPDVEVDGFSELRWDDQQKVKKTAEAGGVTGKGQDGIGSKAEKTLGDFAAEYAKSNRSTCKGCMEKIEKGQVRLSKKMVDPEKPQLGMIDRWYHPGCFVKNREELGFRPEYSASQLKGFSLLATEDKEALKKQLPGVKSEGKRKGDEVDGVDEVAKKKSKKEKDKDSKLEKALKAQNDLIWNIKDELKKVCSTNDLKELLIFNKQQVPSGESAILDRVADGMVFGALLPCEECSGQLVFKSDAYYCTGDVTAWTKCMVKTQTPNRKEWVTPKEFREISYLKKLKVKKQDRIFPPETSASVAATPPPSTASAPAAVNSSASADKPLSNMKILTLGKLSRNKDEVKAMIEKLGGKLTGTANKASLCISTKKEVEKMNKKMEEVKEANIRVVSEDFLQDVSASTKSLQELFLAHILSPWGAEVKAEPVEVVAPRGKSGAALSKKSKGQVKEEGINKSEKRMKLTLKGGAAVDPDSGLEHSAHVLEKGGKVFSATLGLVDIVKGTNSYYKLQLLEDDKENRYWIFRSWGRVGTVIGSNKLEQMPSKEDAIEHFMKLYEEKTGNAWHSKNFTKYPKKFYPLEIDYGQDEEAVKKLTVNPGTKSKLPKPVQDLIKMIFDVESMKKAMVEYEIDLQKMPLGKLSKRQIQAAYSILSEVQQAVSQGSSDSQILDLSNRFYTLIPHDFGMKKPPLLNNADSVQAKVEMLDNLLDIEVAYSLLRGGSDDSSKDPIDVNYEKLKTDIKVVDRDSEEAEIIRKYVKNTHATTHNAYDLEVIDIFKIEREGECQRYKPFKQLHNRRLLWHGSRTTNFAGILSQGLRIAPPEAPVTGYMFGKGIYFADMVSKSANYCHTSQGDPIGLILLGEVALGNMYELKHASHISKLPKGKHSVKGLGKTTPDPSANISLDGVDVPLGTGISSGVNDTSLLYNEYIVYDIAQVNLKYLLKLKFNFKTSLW
Sequence of 6×HIS-tankyrase 2 (946-1162) (Q9H2K2 946-1162): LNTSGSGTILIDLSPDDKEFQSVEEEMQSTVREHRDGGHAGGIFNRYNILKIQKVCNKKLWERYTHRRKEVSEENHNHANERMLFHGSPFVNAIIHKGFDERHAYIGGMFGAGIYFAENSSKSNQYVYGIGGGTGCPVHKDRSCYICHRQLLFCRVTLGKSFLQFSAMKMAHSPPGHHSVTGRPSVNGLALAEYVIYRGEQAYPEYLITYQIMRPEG
Sequence of 6×HIS-tankyrase1 (1091-1325) (O95271 1091-1325): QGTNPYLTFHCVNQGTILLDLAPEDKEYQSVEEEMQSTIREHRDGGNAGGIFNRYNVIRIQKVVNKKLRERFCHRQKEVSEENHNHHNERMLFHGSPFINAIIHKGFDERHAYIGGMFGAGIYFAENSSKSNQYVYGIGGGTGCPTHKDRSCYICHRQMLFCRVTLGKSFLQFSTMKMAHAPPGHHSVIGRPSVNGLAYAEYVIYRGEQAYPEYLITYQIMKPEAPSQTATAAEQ

Broadly, the EC50 is the midpoint of the concentration-response curve. For the compound `N#Cc1ccc(O[C@H]2CC[C@H](NC(=O)CCCc3nc4ccccc4c(=O)[nH]3)CC2)cc1Cl` [Example 64, N-(trans-4-(3-chloro-4-cyanophenoxy)cyclohexyl)-4-(4-oxo-3,4-dihydro-2-quinazolinyl)butanamide], the IC50 was found to be 1.05 nM in experiment [1]; 0.52 nM in experiment [2]; 1.26 nM in experiment [4] (DLD-1 cells, 40 to 48 hours, read-out: DLD1-STF-FF/RL*100 IC50); 257 nM against PARP1; 288 nM at PARP2; 26.6 nM in experiment [5]. In addition, the 50% effective concentration (EC50) in experiment [3] was found to be 60.9 nM.
In the case of `O=C(CCCSc1nc2ccccc2c(=O)[nH]1)N[C@H]1CC[C@H](c2nnc(-c3ccccc3)o2)CC1` [Example 110, 4-((4-oxo-3,4-dihydroquinazolin-2-yl)thio)-N-((1r,4r)-4-(5-phenyl-1,3,4-oxadiazol-2-yl)cyclohexyl)butanamide], the EC50 in experiment [3] was determined as 132 nM. The IC50 came out at 1.78 nM in experiment [4] (setting [6]), 376 nM against PARP1, 1440 nM against PARP2 and 104 nM in experiment [5].
In the same order, the values of `O=C(CCSc1nc2c(c(=O)[nH]1)CCCC2)N[C@H]1CC[C@H](c2nnc(-c3ccccc3)o2)CC1` [Example 115, 3-((4-oxo-3,4,5,6,7,8-hexahydroquinazolin-2-yl)thio)-N-(trans-4-(5-phenyl-1,3,4-oxadiazol-2-yl)cyclohexyl)propanamide] are 14.4 nM, 1.3 nM, 3860 nM, 1120 nM and 11 nM.
